Experimental data from the supplement of paper PMC10307832.

Key:
Assay in all cases: relative viability (nuclei count vs DMSO), 5 days (fraction); higher = more cells survive
AT-7519 + Navitoclax = compound: O=C(NC1CCNCC1)c1n[nH]cc1NC(=O)c1c(Cl)cccc1Cl [AT-7519] + CC1(C)CCC(c2ccc(Cl)cc2)=C(CN2CCN(c3ccc(C(=O)NS(=O)(=O)c4ccc(N[C@H](CCN5CCOCC5)CSc5ccccc5)c(S(=O)(=O)C(F)(F)F)c4)cc3)CC2)C1 [Navitoclax] (partner 0.5 µM)
Procedure, shortened: (§1)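 Lung cancer cell lines, seeded in 1536-well plates, were treated the following day by pin tool with a single drug or with five library-drug doses (not always all listed) in √10 steps on top of a fixed anchor-drug dose. Cells were fixed and nuclei stained in one step after 5 days, and nuclei were counted. Relative viability is the nuclei count for treated wells divided by that for vehicle wells, reported as medians of duplicate plates.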

AT-7519 + Trametinib = compound: O=C(NC1CCNCC1)c1n[nH]cc1NC(=O)c1c(Cl)cccc1Cl [AT-7519] + CC(=O)Nc1cccc(-n2c(=O)n(C3CC3)c(=O)c3c(Nc4ccc(I)cc4F)n(C)c(=O)c(C)c32)c1 [Trametinib] (partner 0.02 µM)
Procedure, shortened: as §1

[1] = compound: C1=CC2=C(C=C(C(=C2N=C1)O)N=NC3=CC4=C(C=C3)C=C(C=C4)S(=O)(=O)O)S(=O)(=O)O + O=C(CCCCCCC(=O)Nc1ccccc1)NO [Vorinostat] (partner 1 µM)
Procedure, shortened: as §1

[2] = compound: C1=CC2=C(C=C(C(=C2N=C1)O)N=NC3=CC4=C(C=C3)C=C(C=C4)S(=O)(=O)O)S(=O)(=O)O + COc1cc2c(Oc3ccc(NC(=O)C4(C(=O)Nc5ccc(F)cc5)CC4)cc3F)ccnc2cc1OCCCN1CCOCC1 [Foretinib] (partner 0.25 µM)
Procedure, shortened: as §1

NCI-H727 was tested, and the relative viability (AT-7519 + Navitoclax; first compound 0.01 µM) was 0.374, the relative viability (AT-7519 + Navitoclax; first compound 0.03162 µM) was 0.449 and the relative viability (AT-7519 + Navitoclax; first compound 0.3162 µM) was 0.245. It also gave a relative viability (AT-7519 + Navitoclax; first compound 1 µM) of 0.121, a relative viability (AT-7519 + Trametinib; first compound 0.01 µM) of 0.34 and a relative viability (AT-7519 + Trametinib; first compound 0.03162 µM) of 0.414. The relative viability (AT-7519 + Trametinib; first compound 0.3162 µM) was 0.37, the relative viability (AT-7519 + Trametinib; first compound 1 µM) was 0.384 and the relative viability ([1]; first compound 0.08 µM) was 1.13. The relative viability ([1]; first compound 0.253 µM) was 1.26, the relative viability ([1]; first compound 0.8 µM) was 1.09 and the relative viability ([1]; first compound 2.53 µM) was 1.12. The relative viability ([1]; first compound 8 µM) was 1.09, the relative viability ([2]; first compound 0.08 µM) was 0.939 and the relative viability ([2]; first compound 0.253 µM) was 0.759. It also gave a relative viability ([2]; first compound 0.8 µM) of 0.835, a relative viability ([2]; first compound 2.53 µM) of 1.03 and a relative viability ([2]; first compound 8 µM) of 0.774.
With NCI-H838 the relative viability (AT-7519 + Navitoclax; first compound 0.01 µM) was 1.22, the relative viability (AT-7519 + Navitoclax; first compound 0.03162 µM) was 1.06 and the relative viability (AT-7519 + Navitoclax; first compound 0.3162 µM) was 1.09. It also gave a relative viability (AT-7519 + Navitoclax; first compound 1 µM) of 0.147, a relative viability (AT-7519 + Trametinib; first compound 0.01 µM) of 0.475 and a relative viability (AT-7519 + Trametinib; first compound 0.03162 µM) of 0.443. It also gave a relative viability (AT-7519 + Trametinib; first compound 0.3162 µM) of 0.529, a relative viability (AT-7519 + Trametinib; first compound 1 µM) of 0.0788 and a relative viability ([1]; first compound 0.08 µM) of 0.755. The relative viability ([1]; first compound 0.253 µM) was 0.681, the relative viability ([1]; first compound 0.8 µM) was 0.712 and the relative viability ([1]; first compound 2.53 µM) was 0.688. It also gave a relative viability ([1]; first compound 8 µM) of 0.71, a relative viability ([2]; first compound 0.08 µM) of 1.13 and a relative viability ([2]; first compound 0.253 µM) of 1.06. The relative viability ([2]; first compound 0.8 µM) was 1.04, the relative viability ([2]; first compound 2.53 µM) was 1.03 and the relative viability ([2]; first compound 8 µM) was 1.04.
NCI-H1355 showed a relative viability (AT-7519 + Navitoclax; first compound 0.01 µM) of 0.984, a relative viability (AT-7519 + Navitoclax; first compound 0.03162 µM) of 0.873 and a relative viability (AT-7519 + Navitoclax; first compound 0.3162 µM) of 1.09. It also gave a relative viability (AT-7519 + Navitoclax; first compound 1 µM) of 0.865, a relative viability (AT-7519 + Trametinib; first compound 0.01 µM) of 0.482 and a relative viability (AT-7519 + Trametinib; first compound 0.03162 µM) of 0.416. The relative viability (AT-7519 + Trametinib; first compound 0.3162 µM) was 0.48, the relative viability (AT-7519 + Trametinib; first compound 1 µM) was 0.298 and the relative viability ([1]; first compound 0.08 µM) was 0.646. The relative viability ([1]; first compound 0.253 µM) was 0.619, the relative viability ([1]; first compound 0.8 µM) was 0.615 and the relative viability ([1]; first compound 2.53 µM) was 0.605. For the same cell line, the relative viability ([1]; first compound 8 µM) was 0.481, the relative viability ([2]; first compound 0.08 µM) was 1.1 and the relative viability ([2]; first compound 0.253 µM) was 0.988. It also gave a relative viability ([2]; first compound 0.8 µM) of 0.92, a relative viability ([2]; first compound 2.53 µM) of 1.03 and a relative viability ([2]; first compound 8 µM) of 0.996.
NCI-H1395 was tested, and the relative viability (AT-7519 + Navitoclax; first compound 0.01 µM) was 1.62, the relative viability (AT-7519 + Navitoclax; first compound 0.03162 µM) was 1.17 and the relative viability (AT-7519 + Navitoclax; first compound 0.3162 µM) was 1.03. It also gave a relative viability (AT-7519 + Navitoclax; first compound 1 µM) of 0.831, a relative viability (AT-7519 + Trametinib; first compound 0.01 µM) of 1.16 and a relative viability (AT-7519 + Trametinib; first compound 0.03162 µM) of 1.04. It also gave a relative viability (AT-7519 + Trametinib; first compound 0.3162 µM) of 0.799, a relative viability (AT-7519 + Trametinib; first compound 1 µM) of 0.499 and a relative viability ([1]; first compound 0.08 µM) of 0.674. It also gave a relative viability ([1]; first compound 0.253 µM) of 0.596, a relative viability ([1]; first compound 0.8 µM) of 0.554 and a relative viability ([1]; first compound 2.53 µM) of 0.73. For the same cell line, the relative viability ([1]; first compound 8 µM) was 0.551, the relative viability ([2]; first compound 0.08 µM) was 0.965 and the relative viability ([2]; first compound 0.253 µM) was 0.988. The relative viability ([2]; first compound 0.8 µM) was 0.956, the relative viability ([2]; first compound 2.53 µM) was 1.03 and the relative viability ([2]; first compound 8 µM) was 1.
With NCI-H1437 the relative viability (AT-7519 + Navitoclax; first compound 0.01 µM) was 1.03, the relative viability (AT-7519 + Navitoclax; first compound 0.03162 µM) was 1.08 and the relative viability (AT-7519 + Navitoclax; first compound 0.3162 µM) was 1.1. For the same cell line, the relative viability (AT-7519 + Navitoclax; first compound 1 µM) was 0.455, the relative viability (AT-7519 + Trametinib; first compound 0.01 µM) was 0.532 and the relative viability (AT-7519 + Trametinib; first compound 0.03162 µM) was 0.503. For the same cell line, the relative viability (AT-7519 + Trametinib; first compound 0.3162 µM) was 0.507, the relative viability (AT-7519 + Trametinib; first compound 1 µM) was 0.214 and the relative viability ([1]; first compound 0.08 µM) was 0.901. For the same cell line, the relative viability ([1]; first compound 0.253 µM) was 0.857, the relative viability ([1]; first compound 0.8 µM) was 0.851 and the relative viability ([1]; first compound 2.53 µM) was 0.923. For the same cell line, the relative viability ([1]; first compound 8 µM) was 0.841, the relative viability ([2]; first compound 0.08 µM) was 1.33 and the relative viability ([2]; first compound 0.253 µM) was 1.23. It also gave a relative viability ([2]; first compound 0.8 µM) of 1.32, a relative viability ([2]; first compound 2.53 µM) of 1.27 and a relative viability ([2]; first compound 8 µM) of 0.66.
